Drawing on PMC6345978, “The bacterial MrpORP is a novel Mrp/NBP35 protein involved in iron-sulfur biogenesis” (Scientific Reports, 2019), this text covers A400/A280 for 1 substance.

Experiment [1] has as its target T1, Orp3-Orp4-Orp8 complex (Nitratidesulfovibrio vulgaris, UniProt Q72A93+Q72A94).
T1 construct: gene DVU_2103; His-tagged Orp3 (pBMC6C3::2103His) co-purified with Orp4 and Orp8 from DvH, metal centres removed; with Orp8, dinitrogenase iron-molybdenum cofactor biosynthesis domain protein
T1 sequence (Q72A94 1-287): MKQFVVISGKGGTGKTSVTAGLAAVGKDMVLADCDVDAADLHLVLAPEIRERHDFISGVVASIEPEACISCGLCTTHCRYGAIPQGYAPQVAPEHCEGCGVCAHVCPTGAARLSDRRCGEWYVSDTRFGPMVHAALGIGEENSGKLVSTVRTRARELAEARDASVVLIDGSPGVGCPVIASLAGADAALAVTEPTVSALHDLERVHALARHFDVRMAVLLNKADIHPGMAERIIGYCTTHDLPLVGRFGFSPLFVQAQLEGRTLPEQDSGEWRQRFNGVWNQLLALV
T1 sequence (Q72A93 1-301): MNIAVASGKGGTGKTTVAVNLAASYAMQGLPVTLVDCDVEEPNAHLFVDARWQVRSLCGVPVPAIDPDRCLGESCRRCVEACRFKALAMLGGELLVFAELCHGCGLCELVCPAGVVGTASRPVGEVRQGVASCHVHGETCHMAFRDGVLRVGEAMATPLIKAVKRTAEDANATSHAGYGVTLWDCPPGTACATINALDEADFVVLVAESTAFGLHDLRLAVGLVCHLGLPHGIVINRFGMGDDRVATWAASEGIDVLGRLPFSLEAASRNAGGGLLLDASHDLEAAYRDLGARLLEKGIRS
T1 sequence (Q72A89 1-119 partner): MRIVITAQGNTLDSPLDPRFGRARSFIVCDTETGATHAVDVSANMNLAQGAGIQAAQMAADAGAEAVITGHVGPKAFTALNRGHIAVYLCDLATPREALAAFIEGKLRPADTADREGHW
Briefly: Fe-S cluster transfer from holo-MrpORP, Ni-NTA separation, UV-visible spectroscopy. To be noted: anaerobic, DTT; cluster type from sequence motifs of Orp3 and Orp4, distribution between chains not resolved. The class given is binding.

The target in experiment [2] is T2, MrpORP (Dde3202) (Oleidesulfovibrio alaskensis, UniProt Q30WF0).
T2 construct: gene Dde_3202; full length, His-tagged (pJF119-3202His), produced in E. coli TG1, isolated aerobically and reconstituted; 43 kDa; [4Fe-4S] proposed between two monomers
T2 sequence (Q30WF0 1-415): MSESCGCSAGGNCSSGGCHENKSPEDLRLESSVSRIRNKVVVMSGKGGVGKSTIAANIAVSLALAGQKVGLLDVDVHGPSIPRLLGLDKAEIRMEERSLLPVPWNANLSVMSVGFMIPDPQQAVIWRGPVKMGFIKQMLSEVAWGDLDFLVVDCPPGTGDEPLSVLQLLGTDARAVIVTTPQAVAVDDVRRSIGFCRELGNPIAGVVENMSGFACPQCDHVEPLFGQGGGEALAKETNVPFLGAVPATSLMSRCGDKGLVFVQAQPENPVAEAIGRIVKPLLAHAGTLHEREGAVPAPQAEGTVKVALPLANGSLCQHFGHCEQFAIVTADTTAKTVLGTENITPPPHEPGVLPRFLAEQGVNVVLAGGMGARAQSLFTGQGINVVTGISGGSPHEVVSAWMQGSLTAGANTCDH
Briefly: UV-visible spectroscopy after in vitro Fe-S reconstitution. Format: binding. To be noted: anaerobic, DTT, Fe2+ with cysteine/IscS; a second cluster in the Di-Nase domain also contributes.

As to [4Fe-4S] cluster, the A400/A280 in experiment [1] stood at 0.42; in experiment [2] it was 0.3.
